In brackets after ≈: the same amount, converted by molar mass.
Test system: A. baumannii strain ATCC19606
Assay: Minimum inhibitory concentration (MIC) determination, microbroth dilution (CLSI)
Type: cell-based
Settings: Acinetobacter baumannii; A. baumannii ATCC19606; CAMHB; read after 20 hours; >=80% growth inhibition; read-out: ATCC19606 MIC
In short: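 CLSI broth microdilution in cation-adjusted Mueller Hinton broth with twofold compound dilutions and ~5×10^5 CFU/ml inoculum, incubated at 35±2 °C. MIC read after 20 h as lowest concentration inhibiting ≥80% of growth, by eye and OD 600 nm.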

Row | Structure (SMILES) | MIC [µg/mL]
1 | C[C@@H]1NCc2cccnc2Sc2c(Cl)cc(Cl)cc2CNC(=O)[C@H](Cc2c[nH]c3ccccc23)N(C)C(=O)[C@H](CCCCN)NC1=O [Example 94, (11S,14S,17S)-14-(4-Amino-butyl)-23,25-dichloro-17-(1H-indol-3-ylmethyl)-11,16-dimethyl-2-thia-4,10,13,16,19-pentaaza-tricyclo[19.4.0.0*3,8*]pentacosa-1(25),3,5,7,21,23-hexaene-12,15,18-trione] | 1 (≈ 1.44 µM)
2 | C[C@H](O)[C@@H]1NCc2cccnc2Sc2c(Cl)cc(Cl)cc2CNC(=O)[C@H](Cc2c[nH]c3ccccc23)N(C)C(=O)[C@H](CCCCN)NC1=O [Example 106, (11S,14S,17S)-14-(4-Amino-butyl)-23,25-dichloro-11-((S)-1-hydroxy-ethyl)-17-(1H-indol-3-ylmethyl)-16-methyl-2-thia-4,10,13,16,19-pentaaza-tricyclo[19.4.0.0*3,8*]pentacosa-1(25),3,5,7,21,23-hexaene-12,15,18-trione] | 2 (≈ 2.75 µM)
3 | COc1cc(C)c2c(c1)CNC(=O)[C@H](Cc1c[nH]c3ccccc13)N(C)C(=O)[C@H](CCCCN)NC(=O)[C@H](CCCN)NCc1ccccc1S2 [Example 50, (12S,15S,18S)-15-(4-Amino-butyl)-18-(3-amino-propyl)-12-(1H-indol-3-ylmethyl)-6-methoxy-4,13-dimethyl-2-thia-10,13,16,19-tetraaza-tricyclo[19.4.0.0*3,8*]pentacosa-1(25),3,5,7,21,23-hexaene-11,14,17-trione] | 0.25 (≈ 0.35 µM)
4 | CN1C(=O)[C@H](CCCCN)NC(=O)[C@H](CCCN)NCc2ccccc2Sc2c(Cl)ccc(C(F)(F)F)c2CNC(=O)[C@@H]1Cc1c[nH]c2ccccc12 [Example 24, (12S,15S,18S)-15-(4-Amino-butyl)-18-(3-amino-propyl)-4-chloro-12-(1H-indol-3-ylmethyl)-13-methyl-7-trifluoromethyl-2-thia-10,13,16,19-tetraaza-tricyclo[19.4.0.0*3,8*]pentacosa-1(25),3,5,7,21,23-hexaene-11,14,17-trione] | 1 (≈ 1.29 µM)
5 | CN1C(=O)[C@H](CCCCN)NC(=O)C(C)(C)NCc2cccnc2Sc2c(Cl)cc(Cl)cc2CNC(=O)[C@@H]1Cc1c[nH]c2ccccc12 [Example 107, (14S,17S)-14-(4-Amino-butyl)-23,25-dichloro-17-(1H-indol-3-ylmethyl)-11,11,16-trimethyl-2-thia-4,10,13,16,19-pentaaza-tricyclo[19.4.0.0*3,8*]pentacosa-1(25),3,5,7,21,23-hexaene-12,15,18-trione] | 8 (≈ 11.3 µM)
6 | CC(C)[C@@H]1NCc2cccnc2Sc2c(Cl)cc(Cl)cc2CNC(=O)[C@H](Cc2c[nH]c3ccccc23)N(C)C(=O)[C@H](CCCCN)NC1=O [Example 95, (11S,14S,17S)-14-(4-Amino-butyl)-23,25-dichloro-17-(1H-indol-3-ylmethyl)-11-isopropyl-16-methyl-2-thia-4,10,13,16,19-pentaaza-tricyclo[19.4.0.0*3,8*]pentacosa-1(25),3,5,7,21,23-hexaene-12,15,18-trione] | 8 (≈ 11 µM)
7 | CCN1C(=O)[C@H](CCCCN)NC(=O)[C@H](CCCN)NCc2cccnc2Sc2c(Cl)cc(C(F)(F)F)cc2CNC(=O)[C@@H]1Cc1c[nH]c2ccccc12 [Example 77, (11S,14S,17S)-14-(4-Amino-butyl)-11-(3-amino-propyl)-25-chloro-16-ethyl-17-(1H-indol-3-ylmethyl)-23-trifluoromethyl-2-thia-4,10,13,16,19-pentaaza-tricyclo[19.4.0.0*3,8*]pentacosa-1(25),3(8),4,6,21,23-hexaene-12,15,18-trione] | 0.5 (≈ 0.635 µM)
8 | CN1C(=O)[C@H](CCCCN)NC(=O)[C@H](CCCN)NCc2cccnc2Sc2c(cc(-c3ccccc3)cc2C(F)(F)F)CNC(=O)[C@@H]1Cc1c[nH]c2ccccc12 [Example 87, (11S,14S,17S)-14-(4-Amino-butyl)-11-(3-amino-propyl)-17-(1H-indol-3-ylmethyl)-16-methyl-23-phenyl-25-trifluoromethyl-2-thia-4,10,13,16,19-pentaaza-tricyclo[19.4.0.0*3,8*]pentacosa-1(25),3,5,7,21,23-hexaene-12,15,18-trione] | 8 (≈ 9.82 µM)
9 | CN1C(=O)[C@H](CCCCN)NC(=O)[C@H](CCCN)NCc2ccccc2Sc2ccc(Cl)cc2CNC(=O)[C@@H]1Cc1c[nH]c2cc(Cl)ccc12 [Example 18, (12S,15S,18S)-15-(4-Amino-butyl)-18-(3-amino-propyl)-6-chloro-12-(6-chloro-1H-indol-3-ylmethyl)-13-methyl-2-thia-10,13,16,19-tetraaza-tricyclo[19.4.0.0*3,8*]pentacosa-1(21),3,5,7,22,24-hexaene-11,14,17-trione] | 16 (≈ 21.7 µM)
10 | CN1C(=O)[C@H](CCCCN)NC(=O)[C@H](CCCN)NCc2ccccc2Sc2c(F)cccc2CNC(=O)[C@@H]1Cc1c[nH]c2ccccc12 [Example 30, (12S,15S,18S)-15-(4-Amino-butyl)-18-(3-amino-propyl)-4-fluoro-12-(1H-indol-3-ylmethyl)-13-methyl-2-thia-10,13,16,19-tetraaza-tricyclo[19.4.0.0*3,8*]pentacosa-1(21),3,5,7,22,24-hexaene-11,14,17-trione] | 2 (≈ 2.91 µM)
11 | CN1C(=O)[C@H](CCCCN)NC(=O)[C@H](CCCN)NCc2ccccc2Sc2c(F)ccc(F)c2CNC(=O)[C@@H]1Cc1c[nH]c2ccccc12 [Example 29, (12S,15S,18S)-15-(4-Amino-butyl)-18-(3-amino-propyl)-4,7-difluoro-12-(1H-indol-3-ylmethyl)-13-methyl-2-thia-10,13,16,19-tetraaza-tricyclo[19.4.0.0*3,8*]pentacosa-1(21),3,5,7,22,24-hexaene-11,14,17-trione] | 2 (≈ 2.83 µM)
12 | CN1C(=O)[C@H](CCCCN)NC(=O)[C@H](CCCN)NCc2cccnc2Sc2c(Cl)ccc(-c3ccncc3)c2CNC(=O)[C@@H]1Cc1c[nH]c2ccccc12 [Example 190, (11S,14S,17S)-14-(4-Amino-butyl)-11-(3-amino-propyl)-25-chloro-17-(1H-indol-3-ylmethyl)-16-methyl-22-pyridin-4-yl-2-thia-4,10,13,16,19-pentaaza-tricyclo[19.4.0.0*3,8*]pentacosa-1(21),3,5,7,22,24-hexaene-12,15,18-trione] | 0.12 (≈ 0.153 µM)
13 | CCN1C(=O)[C@H](CCCCN)NC(=O)[C@H](CCCN)NCc2cccnc2Sc2c(C)cc(Br)cc2CNC(=O)[C@@H]1Cc1c[nH]c2ccccc12 [Example 84, (11S,14S,17S)-14-(4-Amino-butyl)-11-(3-amino-propyl)-23-bromo-16-ethyl-17-(1H-indol-3-ylmethyl)-25-methyl-2-thia-4,10,13,16,19-pentaaza-tricyclo[19.4.0.0*3,8*]pentacosa-1(25),3(8),4,6,21,23-hexaene-12,15,18-trione] | 0.12 (≈ 0.154 µM)

Results, then the molecule that gave them:

Row | MIC [µg/mL] | Structure (SMILES)
14 | 2 (≈ 2.51 µM) | CN1C(=O)[C@H](CCCCN)NC(=O)[C@H](CCC(N)=O)NCc2cccnc2Sc2c(Cl)cc(-c3ccccc3)cc2CNC(=O)[C@@H]1Cc1c[nH]c2ccccc12 [Example 184, 3-[(11S,14S,17S)-14-(4-Amino-butyl)-25-chloro-17-(1H-indol-3-ylmethyl)-16-methyl-12,15,18-trioxo-23-phenyl-2-thia-4,10,13,16,19-pentaaza-tricyclo[19.4.0.0*3,8*]pentacosa-1(25),3(8),4,6,21,23-hexaen-11-yl]-propionamide]
15 | 2 (≈ 2.32 µM) | CN1C(=O)[C@H](CCCCN)NC(=O)[C@H](CCCN)NCc2cccnc2Sc2c(Cl)cc(-c3cncc(S(C)(=O)=O)c3)cc2CNC(=O)[C@@H]1Cc1c[nH]c2ccccc12 [Example 173, (11S,14S,17S)-14-(4-Amino-butyl)-11-(3-amino-propyl)-25-chloro-17-(1H-indol-3-ylmethyl)-23-(5-methanesulfonyl-pyridin-3-yl)-16-methyl-2-thia-4,10,13,16,19-pentaaza-tricyclo[19.4.0.0*3,8*]pentacosa-1(25),3(8),4,6,21,23-hexaene-12,15,18-trione]
16 | 1 (≈ 1.25 µM) | CN1C(=O)[C@H](CCCCN)NC(=O)[C@H](CCCN)NCc2cccnc2Sc2c(Cl)cc(-c3ccnc(F)c3)cc2CNC(=O)[C@@H]1Cc1c[nH]c2ccccc12 [Example 177, (11S,14S,17S)-14-(4-Amino-butyl)-11-(3-amino-propyl)-25-chloro-23-(2-fluoro-pyridin-4-yl)-17-(1H-indol-3-ylmethyl)-16-methyl-2-thia-4,10,13,16,19-pentaaza-tricyclo[19.4.0.0*3,8*]pentacosa-1(25),3(8),4,6,21,23-hexaene-12,15,18-trione]
17 | 32 (≈ 41.9 µM) | Cc1ccc(-c2cc3c(cn2)Sc2ncccc2CN[C@@H](CCCN)C(=O)N[C@@H](CCCCN)C(=O)N(C)[C@@H](Cc2c[nH]c4ccccc24)C(=O)NC3)cn1 [Example 178, (7S,10S,13S)-13-((1H-Indol-3-yl)methyl)-10-(4-aminobutyl)-7-(3-aminopropyl)-12-methyl-18-(6-methylpyridin-3-yl)-6,7,9,10,12,13,15,16-octahydrodipyrido[2,3-b:4′,3′-p][1,5,8,11,14]thiatetraazacycloheptadecine-8,11,14(5H)-trione]
18 | 1 (≈ 1.12 µM) | Cc1[nH]c2ccccc2c1C[C@H]1C(=O)NCc2cc(-c3ccnc(N4CCN(C)CC4)c3)cc(Cl)c2Sc2ncccc2CN[C@@H](CCCN)C(=O)N[C@@H](CCCCN)C(=O)N1C [Example 203, (7S,10S,13S)— 10-(4-aminobutyl)-7-(3-aminopropyl)-20-chloro-6,7,9,10,12,13,15,16-octahydro-12-methyl-13-[(2-methyl-1H-indol-3-yl)methyl]-18-[2-(4-methyl-1-piperazinyl)-4-pyridinyl]pyrido[2,3-b][1,5,8,11,14]benzothiatetraazacycloheptadecine-8,11,14(5H)-trione]
19 | 0.25 (≈ 0.306 µM) | CN1C(=O)[C@H](CCCCN)NC(=O)[C@H](CCCN)NCc2cccnc2Sc2c(Cl)cc(-c3ccnc(Cl)c3)cc2CNC(=O)[C@@H]1Cc1c[nH]c2ccccc12 [Example 164, (11S,14S,17S)-14-(4-Amino-butyl)-11-(3-amino-propyl)-25-chloro-23-(2-chloro-pyridin-4-yl)-17-(1H-indol-3-ylmethyl)-16-methyl-2-thia-4,10,13,16,19-pentaaza-tricyclo[19.4.0.0*3,8*]pentacosa-1(21),3,5,7,22,24-hexaene-12,15,18-trione]

Reference: patent US10030047B2 (Hoffmann-La Roche Inc., priority 2015, dated 2018)
